# Assay results from article PMC3205184, “Competitive binding at a nicotinic receptor transmembrane site of two α7-selective positive allosteric modulators with differing effects on agonist-evoked desensitization” (Neuropharmacology, 2011).
# Target: T1, α7 nicotinic acetylcholine receptor (α7 nAChR) (Rattus norvegicus, UniProt Q05941)
# T1 construct: gene Chrna7
# Assay: two-electrode voltage clamp in Xenopus oocytes; potentiation of EC20 acetylcholine responses, with site-directed mutants
# Type: cell-based
# T1 sequence (Q05941 23-502): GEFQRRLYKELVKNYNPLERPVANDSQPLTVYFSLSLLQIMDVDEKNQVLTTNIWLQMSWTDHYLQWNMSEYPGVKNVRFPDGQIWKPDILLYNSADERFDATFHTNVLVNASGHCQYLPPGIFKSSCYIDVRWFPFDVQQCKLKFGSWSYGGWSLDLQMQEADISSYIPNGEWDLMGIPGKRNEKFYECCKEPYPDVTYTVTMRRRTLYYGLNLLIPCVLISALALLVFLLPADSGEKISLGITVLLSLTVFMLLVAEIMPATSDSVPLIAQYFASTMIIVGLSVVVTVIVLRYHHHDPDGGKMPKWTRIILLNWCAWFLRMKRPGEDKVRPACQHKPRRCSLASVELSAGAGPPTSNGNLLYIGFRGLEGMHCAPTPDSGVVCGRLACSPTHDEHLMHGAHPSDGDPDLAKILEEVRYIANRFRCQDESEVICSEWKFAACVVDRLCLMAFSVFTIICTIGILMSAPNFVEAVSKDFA
smiles,measurement,value
O=C(Nc1cc(Cl)ccc1O)Nc1cc(C(F)(F)F)ccc1Cl [NS1738],EC50,6.7 ± 1.8 µM
